# Values of other authors, collected in patent US6627614B1, “Sequential therapy comprising a 20(S)-camptothecin and an anthracycline” (priority 2002, dated 2003).
# Assays:
# [1] = tested on: human colon cancer xenografts
# [2] = tested on: various types of cancer, including primary cancer and metastasis; details: patients, oral
# [3] = administered intravenously, patients
# [4] = tested on: nontumorigenic and tumorigenic human cells
# [5] = not given; remark: listed apart in the source
smiles,measurement,setting,value
"CC[C@@]1(O)C(=O)OCc2c1cc1n(c2=O)Cc2cc3c(N)cccc3nc2-1 [9AC, 9-Amino-20(S)-Camptothecin]",anticancer activity against human colon cancer xenografts,[1],high anticancer activity
"CC[C@@]1(O)C(=O)OCc2c1cc1n(c2=O)Cc2cc3c([N+](=O)[O-])cccc3nc2-1 [9NC, 9-nitrocamptothecin]",tumors known to regress after exposure,[2],"breast carcinoma, ovarian carcinoma, cholangiocarcinoma, monomyelocytic leukemia, and pancreatic carcinoma"
same,activity against human tumor xenograft models,human tumor xenografts; human tumor xenograft models,high activity
same,growth of human tumor xenografts,human tumor xenografts; immunodeficient nude mice,inhibited the growth
same,regression of established human tumors,human tumor xenografts; tumors established as xenografts in nude mice,induced regression
"CC[C@@]1(O)C(=O)OCc2c1cc1n(c2=O)Cc2cc3cc4c(cc3nc2-1)OCO4 [10,11 MD, 10,11-Methylendioxy-20(S)-Camptothecin]",anticancer activity against human colon cancer xenografts,[1],high anticancer activity
"CC[C@@](O)(C(=O)[O-])c1cc2n(c(=O)c1CO)Cc1cc3ccccc3nc1-2.[Na+] [20(S)-camptothecin Na^+, sodium salt of 20(S)-camptothecin]",potency in clinical trials,[3],low potency
same,toxicity in clinical trials,[3],high toxicity
CC[C@@]1(O)C(=O)OCc2c1cc1n(c2=O)Cc2cc3ccccc3nc2-1 [20(S)-camptothecin],effect on nontumorigenic cells,[4]; nontumorigenic human cells in vitro,cytostatic
same,effect on tumorigenic cells,[4]; tumorigenic human cells in vitro,cytotoxic
COc1cccc2c1C(=O)c1c(O)c3c(c(O)c1C2=O)C[C@@](O)(C(=O)CO)C[C@@H]3OC1CC(N)C(O)C(C)O1 (stereo partly shown) [doxorubicin],crossing of the blood brain barrier,"human, in vivo",does not cross
same,clearance in patients with impaired hepatic function,,reduced
same,dose appearing in the bile,in 5 days,Approximately 40%
same,systemic clearance in obese women,obese women with ideal body weight greater than 130%,significantly reduced
same,initial distributive half-life,"patients, intravenous injection",approximately 5.0 minutes
same,children with subclinical cardiac dysfunction,"[5]; children, long term follow-up",≤ 40%
same,additional toxicity manifested by,[5]; patients,"neutropenia, thrombocytopenia, anemia, confusion and hematuria"
same,total cumulative dose at which irreversible cardiac toxicity may occur,[5]; patients,~550 mg/M^2
COc1cccc2c1C(=O)c1c(O)c3c(c(O)c1C2=O)C[C@@](O)([C@@H](O)CO)C[C@@H]3O[C@H]1C[C@H](N)[C@H](O)[C@H](C)O1 [doxorubicinol],clearance in patients with impaired hepatic function,,reduced
